Among the data in patent publication US8476256B2, “Diazonamide analogs” (Joyant Pharmaceuticals, Inc., priority 2008, dated 2013) are IC50 values, retold here.

Assay [1] concerns U937 (human leukemic monocyte lymphoma) cell line. Kind of assay: Cell viability assay (CELL-TITER-GLO), U937. As to conditions: U-937, U937 cells, 48 hour treatment, 1 nM to 1 μM. Format: cell-based. Here is the method:
(§1) Cell viability assays were run using standard protocols known to those of skill in art. Cells were plated in 96 well plates at the density of 3,000-10,000 cells per well. Twenty four hours later, cells were treated with increasing concentration of test compounds (1 nM to 1 μM). After another 48 hour, cell survival was measured using CELL-TITER-GLO® reagent (Promega) following the protocol provided by the manufacture. The IC50 value was determined as the concentration of test compound that kills 50% of the cell population.
(§2) Cell viability data generated according to the protocol described herein was generated for representative compounds in the A2058 (human melanoma) and U937 (human leukemic monocyte lymphoma) cell lines. The compound of Example 16 (“Compound J”) was used as a reference compound.

Assay [2] has as its system A2058 (human melanoma) cell line. Description: Cell viability assay (CELL-TITER-GLO), A2058. Format: cell-based. As to conditions: A2058 cells, 48 hour treatment, 1 nM to 1 μM. Here is the method:
as §1, §2

Where only a bound is given, the exact number is not on record here.

As to `CC(C)[C@H](O)C(=O)N[C@H]1Cc2ccc3c(c2)C24C5=C(N=C(O5)[C@H](C(C)C)NC1=O)c1nc(Cl)c(o1)-c1c(Cl)[nH]c5cccc(c15)-c1cccc2c1N[C@H]4O3` (stereo in doubt) [Example 85, Diazonamide A], the half-maximal inhibitory concentration (IC50) (usually the concentration at which inhibition is half-maximal) was 0.086 µM in assay [1] and 0.057 µM in assay [2].
For `CC(C)[C@@H]1NC(=O)[C@@H](NC(=O)[C@@H](O)c2ccccc2)Cc2ccc3c(c2)C24C5=C(N=C1O5)c1ncc(o1)-c1c[nH]c5cccc(c15)-c1cccc2c1N[C@H]4O3` (stereo partly drawn) [Example 17], in that order: 0.465 µM and 0.63 µM.
On the same counts, the results for `CC(C)[C@@H]1NC(=O)C(NC(=O)[C@H](C)O)Cc2ccc3c(c2)[C@]24C5=C(N=C1O5)c1ncc(o1)-c1c[nH]c5cccc(c15)-c1cccc2c1NC4O3` (stereo partly drawn) [Example 18] are 0.208 µM and 0.394 µM.
For `CC(C)[C@@H]1NC(=O)C(NC(=O)[C@@H](O)C(C)(C)C)Cc2ccc3c(c2)[C@]24C5=C(N=C1O5)c1ncc(o1)-c1c[nH]c5cccc(c15)-c1cccc2c1NC4O3` (stereo partly drawn) [Example 19], in that order: 0.062 µM and 0.222 µM.
As for `CC(C)C[C@H](O)C(=O)NC1Cc2ccc3c(c2)[C@]24C5=C(N=C(O5)[C@H](C(C)C)NC1=O)c1ncc(o1)-c1c[nH]c5cccc(c15)-c1cccc2c1NC4O3` (stereo partly drawn) [Example 20], the IC50 in assay [1] is 0.142 µM; in assay [2], 0.158 µM.
On to `CC(C)[C@@H]1NC(=O)C(NC(=O)[C@@H](O)C2CCCCC2)Cc2ccc3c(c2)[C@]24C5=C(N=C1O5)c1ncc(o1)-c1c[nH]c5cccc(c15)-c1cccc2c1NC4O3` (stereo partly drawn) [Example 21], for which the IC50 in assay [1] and in assay [2] was over 1 µM in each case.
`CC(C)[C@@H]1NC(=O)C(NC(=O)C(C)(C)O)Cc2ccc3c(c2)[C@]24C5=C(N=C1O5)c1ncc(o1)-c1c[nH]c5cccc(c15)-c1cccc2c1NC4O3` (stereo partly drawn) [Example 22]: the IC50 in assay [1] was determined as 0.146 µM; in assay [2], 0.23 µM.
For `CC(C)[C@@H]1NC(=O)C(NC(=O)C2(O)CC2)Cc2ccc3c(c2)[C@]24C5=C(N=C1O5)c1ncc(o1)-c1c[nH]c5cccc(c15)-c1cccc2c1NC4O3` (stereo partly drawn) [Example 25], in that order: 0.42 µM and 0.769 µM.
With `CC(C)[C@@H]1NC(=O)C(NC(=O)C2(O)CCCC2)Cc2ccc3c(c2)[C@]24C5=C(N=C1O5)c1ncc(o1)-c1c[nH]c5cccc(c15)-c1cccc2c1NC4O3` (stereo partly drawn) [Example 26], the IC50 in assay [1] came to 0.154 µM; in assay [2] it was 0.214 µM.
`CC(C)[C@@H]1NC(=O)C(NC(=O)C2(O)CCCCC2)Cc2ccc3c(c2)[C@]24C5=C(N=C1O5)c1ncc(o1)-c1c[nH]c5cccc(c15)-c1cccc2c1NC4O3` (stereo partly drawn) [Example 27]: the figures for the IC50 in assay [1] and in assay [2] were 0.128 µM and 0.181 µM, respectively.
For `CCC(CO)(CO)C(=O)NC1Cc2ccc3c(c2)[C@]24C5=C(N=C(O5)[C@H](C(C)C)NC1=O)c1ncc(o1)-c1c[nH]c5cccc(c15)-c1cccc2c1NC4O3` (stereo partly drawn) [Example 28], in that order: 0.133 µM and 0.208 µM.
On the same counts, the results for `CC(C)[C@@H]1NC(=O)C(NC(=O)[C@H](O)[C@@H](NC(=O)c2ccccc2)c2ccccc2)Cc2ccc3c(c2)[C@]24C5=C(N=C1O5)c1ncc(o1)-c1c[nH]c5cccc(c15)-c1cccc2c1NC4O3` (stereo partly drawn) [Example 29] are over 1 µM and over 1 µM.
As to `CO[C@H](C(=O)N[C@H]1Cc2ccc3c(c2)C24C5=C(N=C(O5)[C@H](C(C)C)NC1=O)c1ncc(o1)-c1c[nH]c5cccc(c15)-c1cccc2c1N[C@H]4O3)C(C)C` (stereo partly drawn) [Example 30], the results for the IC50 in assay [1] and in assay [2] were 0.224 µM and 0.197 µM, respectively.
On the same counts, the results for `CC(=O)O[C@H](C(=O)N[C@H]1Cc2ccc3c(c2)C24C5=C(N=C(O5)[C@H](C(C)C)NC1=O)c1ncc(o1)-c1c[nH]c5cccc(c15)-c1cccc2c1N[C@H]4O3)C(C)C` (stereo partly drawn) [Example 31] are 0.062 µM and 0.194 µM.
For the molecule `COC(=O)O[C@H](C(=O)N[C@H]1Cc2ccc3c(c2)C24C5=C(N=C(O5)[C@H](C(C)C)NC1=O)c1ncc(o1)-c1c[nH]c5cccc(c15)-c1cccc2c1N[C@H]4O3)C(C)C` (stereo partly drawn) [Example 32], the concentration for half-maximal inhibition (IC50) in assay [1] came to 0.157 µM; in assay [2] it was 0.211 µM.
Take `CC(C)[C@H](N)C(=O)N[C@H]1Cc2ccc3c(c2)C24C5=C(N=C(O5)[C@H](C(C)C)NC1=O)c1ncc(o1)-c1c[nH]c5cccc(c15)-c1cccc2c1N[C@H]4O3` (stereo partly drawn) [Example 33]: the IC50 in assay [1] stood at 0.572 µM; in assay [2], 1.44 µM.
Regarding `CN[C@H](C(=O)N[C@H]1Cc2ccc3c(c2)C24C5=C(N=C(O5)[C@H](C(C)C)NC1=O)c1ncc(o1)-c1c[nH]c5cccc(c15)-c1cccc2c1N[C@H]4O3)C(C)C` (stereo partly drawn) [Example 34], the IC50 in assay [1] was 0.393 µM; in assay [2], 0.221 µM.
Regarding `CC(=O)N[C@H](C(=O)N[C@H]1Cc2ccc3c(c2)C24C5=C(N=C(O5)[C@H](C(C)C)NC1=O)c1ncc(o1)-c1c[nH]c5cccc(c15)-c1cccc2c1N[C@H]4O3)C(C)C` (stereo partly drawn) [Example 35], the IC50 amounted to 0.183 µM in assay [1] and 0.232 µM in assay [2].
For `CC(C)C1NC(=O)[C@@H](NC(=O)[C@@H]2CCCN2)Cc2ccc3c(c2)C24C5=C(N=C1O5)c1ncc(o1)-c1c[nH]c5cccc(c15)-c1cccc2c1N[C@H]4O3` (stereo partly drawn) [Example 36], the IC50 in assay [1] and in assay [2] was over 1 µM in each case.
Take `CC(C)C1NC(=O)[C@@H](NC(=O)[C@@H]2C[C@@H](O)CN2)Cc2ccc3c(c2)C24C5=C(N=C1O5)c1ncc(o1)-c1c[nH]c5cccc(c15)-c1cccc2c1N[C@H]4O3` (stereo partly drawn) [Example 37]: the IC50 in assay [1] and in assay [2] was over 1 µM each time.
As for `CC(C)CC(=O)N[C@H]1Cc2ccc3c(c2)[C@]24C5=C(N=C(O5)[C@H](C(C)C)NC1=O)c1ncc(o1)-c1c[nH]c5cccc(c15)-c1cccc2c1NC4O3` (stereo partly drawn) [Example 38], the IC50 is 0.216 µM in assay [1] and 0.417 µM in assay [2].
On the same counts, the results for `CC[C@H](C)C(=O)NC1Cc2ccc3c(c2)[C@]24C5=C(N=C(O5)[C@H](C(C)C)NC1=O)c1ncc(o1)-c1c[nH]c5cccc(c15)-c1cccc2c1NC4O3` (stereo partly drawn) [Example 39] are 0.555 µM and 0.707 µM.
For `CCC(C)(C)C(=O)NC1Cc2ccc3c(c2)[C@]24C5=C(N=C(O5)[C@H](C(C)C)NC1=O)c1ncc(o1)-c1c[nH]c5cccc(c15)-c1cccc2c1NC4O3` (stereo partly drawn) [Example 40], in that order: 0.164 µM and 0.233 µM.
For `CCCC(C)(C)C(=O)NC1Cc2ccc3c(c2)[C@]24C5=C(N=C(O5)[C@H](C(C)C)NC1=O)c1ncc(o1)-c1c[nH]c5cccc(c15)-c1cccc2c1NC4O3` (stereo partly drawn) [Example 41], in that order: 0.22 µM and 0.397 µM.
On to `CC(C)=CC(=O)NC1Cc2ccc3c(c2)[C@]24C5=C(N=C(O5)[C@H](C(C)C)NC1=O)c1ncc(o1)-c1c[nH]c5cccc(c15)-c1cccc2c1NC4O3` (stereo partly drawn) [Example 42], for which the IC50 came to 0.221 µM in assay [1] and 0.409 µM in assay [2].
Consider `CC/C=C/C(=O)NC1Cc2ccc3c(c2)[C@]24C5=C(N=C(O5)[C@H](C(C)C)NC1=O)c1ncc(o1)-c1c[nH]c5cccc(c15)-c1cccc2c1NC4O3` (stereo partly drawn) [Example 43], for which the IC50 in assay [1] came to 0.186 µM; in assay [2], 0.356 µM.
For `CC/C=C(\C)C(=O)NC1Cc2ccc3c(c2)[C@]24C5=C(N=C(O5)[C@H](C(C)C)NC1=O)c1ncc(o1)-c1c[nH]c5cccc(c15)-c1cccc2c1NC4O3` (stereo partly drawn) [Example 44], the IC50 in assay [1] came to 0.399 µM; in assay [2], 0.587 µM.
As to `CC(C)=CCC/C(C)=C/C(=O)NC1Cc2ccc3c(c2)[C@]24C5=C(N=C(O5)[C@H](C(C)C)NC1=O)c1ncc(o1)-c1c[nH]c5cccc(c15)-c1cccc2c1NC4O3` (stereo partly drawn) [Example 45], the values for the IC50 in assay [1] and in assay [2] were 0.78 µM and 0.887 µM, respectively.
Regarding `CC(C)C(Br)C(=O)NC1Cc2ccc3c(c2)[C@]24C5=C(N=C(O5)[C@H](C(C)C)NC1=O)c1ncc(o1)-c1c[nH]c5cccc(c15)-c1cccc2c1NC4O3` (stereo partly drawn) [Example 46], the values for the IC50 in assay [1] and in assay [2] were 0.443 µM and 0.313 µM, respectively.
As for `CCCC(Br)C(=O)NC1Cc2ccc3c(c2)[C@]24C5=C(N=C(O5)[C@H](C(C)C)NC1=O)c1ncc(o1)-c1c[nH]c5cccc(c15)-c1cccc2c1NC4O3` (stereo partly drawn) [Example 47], the IC50 in assay [1] came to 0.323 µM; in assay [2] it was 0.546 µM.
Consider `CC(C)[C@@H]1NC(=O)C(NC(=O)C2CC2)Cc2ccc3c(c2)[C@]24C5=C(N=C1O5)c1ncc(o1)-c1c[nH]c5cccc(c15)-c1cccc2c1NC4O3` (stereo partly drawn) [Example 48], for which the half-maximal inhibitory concentration (IC50) in assay [1] worked out at 0.22 µM; in assay [2], 0.457 µM.
On the same counts, the results for `CC1CC1C(=O)NC1Cc2ccc3c(c2)[C@]24C5=C(N=C(O5)[C@H](C(C)C)NC1=O)c1ncc(o1)-c1c[nH]c5cccc(c15)-c1cccc2c1NC4O3` (stereo partly drawn) [Example 49] are 0.245 µM and 0.443 µM.
On the same counts, the results for `CC(C)[C@@H]1NC(=O)C(NC(=O)C2CCCC2)Cc2ccc3c(c2)[C@]24C5=C(N=C1O5)c1ncc(o1)-c1c[nH]c5cccc(c15)-c1cccc2c1NC4O3` (stereo partly drawn) [Example 50] are 0.331 µM and 0.339 µM.
For `CC(C)[C@@H]1NC(=O)C(NC(=O)C2CCCCC2)Cc2ccc3c(c2)[C@]24C5=C(N=C1O5)c1ncc(o1)-c1c[nH]c5cccc(c15)-c1cccc2c1NC4O3` (stereo partly drawn) [Example 51], in that order: 0.276 µM and 0.235 µM.
Consider `CC(C)[C@@H]1NC(=O)C(NC(=O)C2(C)CCCCC2)Cc2ccc3c(c2)[C@]24C5=C(N=C1O5)c1ncc(o1)-c1c[nH]c5cccc(c15)-c1cccc2c1NC4O3` (stereo partly drawn) [Example 52], for which the IC50 in assay [1] was 0.491 µM; in assay [2], 0.386 µM.
On the same counts, the results for `CC(C)[C@@H]1NC(=O)C(NC(=O)[C@@H]2CCOC2)Cc2ccc3c(c2)[C@]24C5=C(N=C1O5)c1ncc(o1)-c1c[nH]c5cccc(c15)-c1cccc2c1NC4O3` (stereo partly drawn) [Example 54] are 0.078 µM and 0.081 µM.
